This is an account of results in patent US9969698B2, “Quinoxalinyl-piperazinamide methods of use” (REXAHN PHARMACEUTICALS, INC., priority 2015, dated 2018).

Series [1] is described as follows: Human safety and tolerability, dose-ranging study. The series is classed as in vivo. The settings on record: oral capsules. The method, then:
In a dose-ranging study, the pharmacokinetics (PK), safety and tolerability of RX-5902 at various oral doses were evaluated. Subjects with advanced or metastatic solid tumors were administered capsules containing RX-5902 at daily doses of 25-775 mg once weekly, 250-300 mg three times a week, 150-300 mg five times a week, or 300-350 mg seven times a week of RX-5902 for up to 6 dosing cycles. Each cycle consisting of 1-5 doses of RX-5902 per week for 3 weeks followed by 1 week of rest, or 5-7 doses of RX-5902 per week for 4 weeks without any rest per 4-week cycle. All but one subject had fasted from food for at least 8 hours before administration. One subject received 300 mg RX-5902 in fed state. Plasma concentrations were measured on Days 1 and 15, for 48 hrs, using a validated LC-MS/MS assay, and noncompartmental pharmacokinetic parameters were calculated using Phoenix WinNonlin, Version 6.4.

For series [2], the system named is ovarian tumor xenograft (SK-OV3). As to the kind of experiment: Ovarian tumor xenograft model. The format is in vivo, mice. To be noted: oral, 5ON/2OFF. The source says:
The efficacy of RX-5902 in human cancer xenograft mouse models is examined. Female nude mice (nu/nu, Harlan or CRL: NU(NCr)-Foxn1^nu, Charles River), 9-10 weeks old, with a body weight (BW) range of 15-30 g on day 1 of the study, are fed ad libitum water (reverse osmosis, 1 ppm C1), and NIH 31 Modified and Irradiated Lab Diet® consisting of 18.0% crude protein, 5.0% crude fat, and 5.0% crude fiber. The mice are housed on irradiated Enrich-o'Cobs™ Laboratory Animal Bedding in static microisolators on a 12-hour light cycle at 20-22° C. (68-72° F.) and 40-60% humidity. […]
The cells are harvested during exponential growth and re-suspended with phosphate buffered saline. Each test animal receives a subcutaneous (s.c.) injection of 5×10^6 tumor cells into the right flank and tumor growth is monitored as the average tumor size approaches the target range of 80-300 mm^3. […] Tumors and body weights are measured regularly until the study is terminated.
Tumors are measured in two dimensions using calipers, and volume is calculated using the formula: […]
Treatment efficacy is determined using data from Day 15. The MTV (n), the median tumor volume for the number of animals, n, on Day 15, is determined for each group. […]
Animals are monitored individually for tumor growth until Day 71. […] The time to endpoint (TTE) for each mouse is calculated with the following equation: […]

In series [3] the target is T1, p68 RNA helicase (Homo sapiens, UniProt P17844).
T1 construct: made in house
T1 sequence (P17844 whole entry): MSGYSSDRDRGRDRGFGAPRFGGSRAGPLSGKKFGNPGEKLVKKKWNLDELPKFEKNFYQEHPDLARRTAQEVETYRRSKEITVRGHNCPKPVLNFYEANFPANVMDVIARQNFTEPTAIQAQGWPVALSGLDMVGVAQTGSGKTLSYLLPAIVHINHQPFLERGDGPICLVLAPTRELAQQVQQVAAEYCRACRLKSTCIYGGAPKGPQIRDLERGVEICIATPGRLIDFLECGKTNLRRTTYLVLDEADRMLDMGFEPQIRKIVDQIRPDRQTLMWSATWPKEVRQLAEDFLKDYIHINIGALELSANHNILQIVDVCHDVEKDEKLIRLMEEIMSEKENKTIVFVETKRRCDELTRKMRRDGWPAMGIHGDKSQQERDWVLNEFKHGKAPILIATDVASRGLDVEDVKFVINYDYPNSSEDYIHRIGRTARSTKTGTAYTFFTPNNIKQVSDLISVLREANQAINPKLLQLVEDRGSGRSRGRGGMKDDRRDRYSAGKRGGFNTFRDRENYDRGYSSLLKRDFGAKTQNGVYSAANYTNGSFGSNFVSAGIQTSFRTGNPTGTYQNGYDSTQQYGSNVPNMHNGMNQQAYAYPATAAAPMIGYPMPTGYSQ
The series is described as follows: DARTS target identification (thermolysin protection, Western blot). The series is classed as cell-based. The settings on record: MDA-MB-231 cells treated 0.1-10 μM for one hour. As to the method:
MDA-MB-231 cells were plated onto 6 well plates and treated with RX-5902 at various concentrations (0, 0.1, 1 and 10 μM) for one hour. Cells were lysed with p-MER buffer containing protease/phosphatase inhibitors on ice. Cell lysates were treated with thermolysin protease (1:1,500 ratio) for 10 min at RT and the reaction was stopped by addition of 0.5 M EDTA solution. The reaction mixtures were separated on a 10% SDS-PAGE visualized by Coomassie staining. After identifying several candidate proteins from mass spectrometry sequencing analysis, the protein which interacted with RX-5902 was confirmed by western blot analysis.
Protein mix or cell lysates were separated by SDS-PAGE and transferred to PVDF membrane. The membrane was blocked by blocking buffer (1×TBST containing 5% BSA) at room temperature for 1 hour. After a brief wash, the membrane was incubated with primary antibody in blocking buffer at 4° C. overnight. […]
Well-established target identification method DARTS assay (Lomenick et al., Proc. Natl. Acad. Sci. USA, 106:21984-21989 (2009)) was used to find target proteins that would interact with RX-5902 in cancer cells. […] To identify this protected protein, the bands along with control were sliced out, and analyzed with LC-MS/MS by ProtTech (Phoenixville, Pa.). […]
For orientation: A western blot detects proteins with antibodies after separation by electrophoresis.

Turning to `COc1cc(OC)cc(N2CCN(C(=O)Nc3nc4cc(F)ccc4nc3OC)CC2)c1` [RX-5902, 4-(3,5-dimethoxyphenyl)-N-(7-fluoro-3-methoxyquinoxalin-2-yl)piperazine-1-carboxamide], the “most frequently reported adverse events” value in series [1] (25-775 mg) is “mild nausea, vomiting and fatigue”. In series [1] (at the tested dose levels (25-775 mg)), the tolerability result was “well tolerated”. Also, the figures for the TGD % in series [2] (40 mg/kg) and in series [2] (70 mg/kg) were 6%^ and 49%^, respectively. Also, the “protection of ~60 kDa band (p68 RNA helicase) from protease” value in series [3] was “protected from the protease cleavage”.
